What was measured:
[1] = target: T1, human TPO receptor, c-mpl (hTPOr) (Homo sapiens, UniProt P40238); test: Example 7: Baf/3 hTPOr fos/lux luciferase reporter assay (relative luminescent units); format: cell-based
T1 construct: expressed in transfected cells
T1 sequence (P40238 26-635): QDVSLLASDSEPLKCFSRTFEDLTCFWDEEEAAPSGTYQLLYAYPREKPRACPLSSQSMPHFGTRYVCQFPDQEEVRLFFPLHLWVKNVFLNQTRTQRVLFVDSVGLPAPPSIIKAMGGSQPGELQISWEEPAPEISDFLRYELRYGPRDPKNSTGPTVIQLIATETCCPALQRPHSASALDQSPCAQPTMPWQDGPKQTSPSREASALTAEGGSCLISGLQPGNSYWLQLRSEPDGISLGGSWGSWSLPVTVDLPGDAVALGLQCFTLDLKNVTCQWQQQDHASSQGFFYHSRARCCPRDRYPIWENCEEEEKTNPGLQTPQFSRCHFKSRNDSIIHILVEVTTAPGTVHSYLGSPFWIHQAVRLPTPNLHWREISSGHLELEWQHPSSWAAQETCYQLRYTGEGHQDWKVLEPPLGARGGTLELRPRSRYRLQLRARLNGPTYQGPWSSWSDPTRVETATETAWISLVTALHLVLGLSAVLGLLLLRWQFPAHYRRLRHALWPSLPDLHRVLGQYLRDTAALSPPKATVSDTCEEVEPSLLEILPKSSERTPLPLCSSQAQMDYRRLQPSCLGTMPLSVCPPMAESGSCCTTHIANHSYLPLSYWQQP
From the text: The activity of the peptide compounds can be determined using standard relative luminescent units assay techniques. The assay employs, e.g., murine cells engineered to stably express the human TPO receptor and a luciferase reporter construct driven by the fos promoter. The assay may be performed as follows: Serum deprived Baf/3 hTPOr fos/lux cells expressing the human TPO receptor, c-mpl (hTPOr), and a luciferase reporter construct are exposed to increasing concentrations of either rhTPO or peptide compound for approximately 18 hours. Cells are then incubated in a medium containing a luciferase substrate and the luminescence of the cells is measured using a luminometer.

[2] = test system: mice treated with two rounds of carboplatin; test: Example 5: two rounds of high-dose carboplatin, hematocrit and survival of mice; format: in vivo; conditions: of the mice not utilized for hematological evaluation; carboplatin alone versus combination therapy
Experimental: (§1) The effects of PEGylated TPO Compound No. 1 on mice treated with carboplatin were observed. For all examples herein, a 10 mg/ml stock solution of PEGylated TPO Compound No. 1 was prepared in sterile saline. For mixing, the preparation was placed on a gyratory shaker for 15min. at 200 rpm. This method was used to dissolve PEGylated TPO Compound No. 1 without foaming. The stock was filtered using a GV Millex (0.22um) filter. Dosing solutions were then prepared from this stock using sterile saline. The stock and dosing solutions were prepared fresh on the day of use.
Groups of mice were treated with two rounds of the chemotherapeutic agent (carboplatin) ten days apart, with each round consisting of two consecutive days of carboplatin (i.e., 70 mg/kg/day administered on Days -1 & 0 and Days 10 & 11) as delineated below. The dose of carboplatin utilized for these survival studies exceeded the maximal tolerated dose for mice (i.e., 120 mg/kg; administered as 60 mg/kg/day on 2 consecutive days). One hour following the second dose of carboplatin in each round (i.e., Day 0 and 11) mice were treated with PEGylated TPO Compound No. 1 (100ug/kg) or vehicle (sterile saline, SS, preservative-free 0.9% sodium chloride) by IV (bolus) injection as delineated below. The dose was administered on a per weight basis (100 ul/10g body weight). […]

[3] = test system: mice treated with carboplatin; test: Example 3: dosing 1 hour, 1 day or 4 days after carboplatin, anemia in mice; format: in vivo, BALB/c mouse
Experimental: as §1
The effect of PEGylated TPO Compound No. 1 on the duration and severity of anemia following dosing regimens in which PEGylated TPO Compound No. 1 is administered at various times following the carboplatin treatment was observed. For this study, an amount of PEGylated TPO Compound No. 1 was administered to mice, one (1) hour, one (1) day or four (4) days following a carboplatin dose.
The groups of mice were treated with either carboplatin or vehicle (Phosphate Buffered Saline, PBS) by ip administration on Days -1 and 0 as delineated below. The optimal dose of carboplatin used to induce thrombocytopenia in the BALB/c mouse strain was previously determined to be a fractionated total dose of 120mg/kg given as two consecutive daily injections (i.e., 2x60mg/kg). One hour (Day 0), one day (Day 1) or four days (Day 4) following the second dose of carboplatin, groups of mice were treated with PEGylated TPO Compound No. 1 (300ug/kg) or vehicle (sterile saline, SS, preservative-free 0.9% sodium chloride) by IV (bolus) injection as delineated in Table 3. The dose was administered on a per-weight basis (100ul/10g body weight).
On Days 6, 8, 10 & 12, five mice in each test group were weighed and then euthanised using CO2-asphyxiation and exsanguinations via cardiac puncture. The blood samples were transferred to separate EDTA (lavender-top) microcontainers for hematological evaluation. Groups of control mice (5) were processed on Days 6 & 12. The data are presented graphically as group means + SEM.

carboplatin treated mice = test: Example 6: mechanistic study, increasing carboplatin doses, platelets, hematocrit, brain fibrinogen/fibrin histology; format: in vivo
Experimental: as §1
For mechanistic studies, groups of mice were treated with vehicle or increasing amounts of carboplatin (i.e., 60, 70 or 80 mg/kg) for 2 consecutive days (Day -1 & Day 0). Approximately one hour following the second dose of carboplatin, groups of mice were treated with PEGylated TPO Compound No.1 (100ug/kg) or vehicle (sterile saline, SS, preservative-free 0.9% sodium chloride) by IV.(bolus) injection as delineated in Table 5.
On Day 15, the mice in all treatment groups were euthanised using CO2-asphyxiation and exsanguinations via cardiac puncture. The blood samples were transferred to separate EDTA (lavender-top) microtainers for hematologic evaluation. In addition, several organs (including the brains) of control mice and mice treated with 2x70 mg/kg carboplatin without and with co-treatment with PEGylated TPO Compound No.1 were isolated and processed for histological examination. Sections of these tissues were processed immunohistochemically for fibrinogen/fibrin.

Methoxypolyethyleneglycol20000-propionyl-L-Isoleucyl-L-Glutamyl-Glycyl-L-Prolyl-L-Threonyl-L-Leucyl-L-Arginyl-L-Glutaminyl-L-2-Naphthylalanyl-L-Leucyl-L-Alanyl-L-Alanyl-L-Arginyl-Sarcosyl-Ne-(methoxypolyethyleneglycol20000-propionyl-L-Isoleucyl-L-Glutamyl-Glycyl-L-Prolyl-L-Threonyl-L-Leucyl-L-Arginyl-L-Glutaminyl-L-2-Naphthylalanyl-L-Leucyl-L-Alanyl-L-Alanyl-L-Arginyl-Sarcosyl-)-Lysinamide [PEGylated TPO Compound No. 1]
EC50 ([1]; Baf/3 cells recombinantly expressing human TPO-R, approximately 18 hours): ~5 pM
activation of TPO-R compared with TPO ([1]; at the same concentration as TPO): stronger activation
activation of Baf/3 cells recombinantly expressing human TPO-R ([1]; increasing concentrations): dose dependent
mice that died between days 4 and 18 [2]: 1
time of dosing after chemotherapy at which prevention of carboplatin-induced anemia is observed ([3]; 300ug/kg iv): ≤ 24 h
decreases in hemoglobin levels, RBC counts and hematocrits caused by carboplatin ([3]; 300ug/kg iv on Day 0 (1 hour after carboplatin treatment)): prevented
decreases in hemoglobin levels, RBC counts and hematocrits caused by carboplatin ([3]; 300ug/kg iv on Day 1): prevented
carboplatin-induced changes in erythrocyte parameters ([3]; 300ug/kg iv on Day 4): failed to affect
onset, frequency or severity of signs (hunched, flaccid) ([3]; 300ug/kg iv, no detailed analysis): did not appear to have a dramatic effect
weight loss associated with carboplatin treatment ([3]; administration on Day 0, Day 1 or Day 4, no statistical analysis): did not appear to affect the weight loss
small vessels in brain sections, fibrinogen/fibrin staining (carboplatin treated mice; 2x70mg/kg carboplatin plus 100ug/kg iv, Day 15): appeared normal or exhibited fibrinogen/fibrin staining that was only slightly darker than the control group
microthrombotic events in brain sections (carboplatin treated mice; 2x70mg/kg carboplatin plus 100ug/kg iv, entire dose group): single
survival (carboplatin treated mice; 2x80mg/kg carboplatin plus 100ug/kg iv, all of the mice): survived until the scheduled study termination
thrombocytopenia or anemia (carboplatin treated mice; 2x80mg/kg carboplatin plus 100ug/kg iv, on Day 15): did not exhibit thrombocytopenia or anemia
decreases in platelet and RBC counts induced by the carboplatin (carboplatin treated mice; carboplatin 2x60 or 2x70mg/kg, 100ug/kg iv about one hour after second carboplatin dose, Day 15): totally inhibited
fibrinogen deposition and blood clots in brain sections (carboplatin treated mice; carboplatin treated mice, FIG. 19): reduces
